These results are taken from patent US7101878B1 (Agouron Pharmaceuticals, Inc., priority 1998, dated 2006).

Read-outs that look alike come from different tables or passages of the source.

The nature of series [1]: Metabolism rate, pmol/min/mg at 1 μM, human. It counts as in vitro ADME. The conditions noted are these: 1 μM compound.
Another series deals with 5-HT7 (Homo sapiens, UniProt P34969). Put plainly: Selectivity: 5-HT7.
Series [2] can be described thus: Pharmacokinetic studies / bioavailability in rats. It counts as in vivo, rat. The conditions noted are these: for Cmax / Tmax / half-life: rat, plasma; for Cmax / Tmax: po.
A further series concerns the target D2 Dopamine (Homo sapiens, UniProt P14416). Put plainly: Selectivity: D2 Dopamine.
In series [3] the target is T1, rat GnRH receptor (Rattus norvegicus, UniProt P30969).
T1 sequence (P30969 1-327): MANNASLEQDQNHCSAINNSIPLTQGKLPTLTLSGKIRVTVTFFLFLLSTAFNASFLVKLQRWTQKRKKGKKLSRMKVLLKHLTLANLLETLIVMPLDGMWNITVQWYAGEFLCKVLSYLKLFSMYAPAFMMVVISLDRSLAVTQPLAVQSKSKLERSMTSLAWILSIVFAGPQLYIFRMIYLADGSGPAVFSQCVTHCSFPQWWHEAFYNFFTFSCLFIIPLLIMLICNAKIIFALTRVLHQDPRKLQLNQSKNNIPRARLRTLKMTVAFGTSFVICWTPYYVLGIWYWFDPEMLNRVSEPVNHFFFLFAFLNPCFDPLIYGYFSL
Put plainly: Radioligand binding, 125I-GnRH-A, rat pituitary membranes. Also on record: membranes were prepared from rat pituitary; from tissue; host or cells: rat pituitary. The conditions noted are these: read-out: rGnRH IC50. The method, boiled down: (§1)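 Bound label captured on 0.1% polyethyleneimine-treated GF/C filters, washed three times with PBS, counted. IC50 derived; identical set-up for every species.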

Series [4] can be described thus: Metabolism rate, pmol/min/mg at 1 μM, rat male. The series is classed as in vitro ADME. Conditions: 1 μM compound.
A further series addresses T2, human GnRH receptor (Homo sapiens, UniProt P30968).
T2 construct: expressed in transfected cells; host or cells: HEK 293 (hGnRH-R/293, from Dr. Stuart Sealfon)
T2 sequence (P30968 1-328): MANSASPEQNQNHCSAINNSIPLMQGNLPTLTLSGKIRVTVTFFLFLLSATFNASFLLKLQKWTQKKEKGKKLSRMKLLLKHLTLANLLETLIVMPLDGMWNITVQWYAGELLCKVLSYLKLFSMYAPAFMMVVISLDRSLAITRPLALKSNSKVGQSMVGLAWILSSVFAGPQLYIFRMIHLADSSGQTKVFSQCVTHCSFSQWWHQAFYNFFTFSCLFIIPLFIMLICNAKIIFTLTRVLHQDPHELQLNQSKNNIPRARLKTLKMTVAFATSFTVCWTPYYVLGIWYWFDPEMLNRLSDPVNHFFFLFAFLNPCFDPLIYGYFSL
Put plainly: Radioligand binding, 125I-GnRH-A displacement, membranes of HEK 293 cells with human GnRH receptor. The conditions noted are these: read-out: hGnRH IC50. An outline of the steps:
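Bound tracer was separated by filtration through polyethyleneimine-soaked GF/C filters and counted by liquid scintillation. IC50 from curve fitting; other species were tested under the same conditions.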

The target in a further series is T3, mouse GnRH receptor (Mus musculus, UniProt Q01776).
T3 construct: expressed in transfected cells; host or cells: 293 cells
T3 sequence (Q01776 1-327): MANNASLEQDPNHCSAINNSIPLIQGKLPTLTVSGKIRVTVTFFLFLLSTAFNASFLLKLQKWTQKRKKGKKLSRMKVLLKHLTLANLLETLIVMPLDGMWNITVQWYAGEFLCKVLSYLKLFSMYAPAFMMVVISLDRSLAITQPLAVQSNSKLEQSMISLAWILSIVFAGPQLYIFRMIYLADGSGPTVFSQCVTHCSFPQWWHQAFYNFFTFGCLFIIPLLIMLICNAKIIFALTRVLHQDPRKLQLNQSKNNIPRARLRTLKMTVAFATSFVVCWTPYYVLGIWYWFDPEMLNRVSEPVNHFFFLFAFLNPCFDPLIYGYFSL
Put plainly: Radioligand binding, 125I-GnRH-A, 293 cells expressing mouse GnRH receptors. The method, boiled down: as §1

The nature of series [5]: Metabolism rate, pmol/min/mg at 1 μM, dog. It counts as in vitro ADME. The conditions noted are these: 1 μM compound.
Series [6] in a line: Metabolism rate, pmol/min/mg at 1 μM, rat female. It counts as in vitro ADME. The conditions noted are these: 1 μM compound.
Series [7] is described as follows: Metabolism rate, pmol/min/mg at 1 μM, monkey. It counts as in vitro ADME. Conditions: 1 μM compound.
Another series concerns the target T4, bovine GnRH receptor (Bos taurus, UniProt P32236).
T4 construct: membranes were prepared from bovine pituitary; from tissue; host or cells: bovine pituitary
T4 sequence (P32236 1-328): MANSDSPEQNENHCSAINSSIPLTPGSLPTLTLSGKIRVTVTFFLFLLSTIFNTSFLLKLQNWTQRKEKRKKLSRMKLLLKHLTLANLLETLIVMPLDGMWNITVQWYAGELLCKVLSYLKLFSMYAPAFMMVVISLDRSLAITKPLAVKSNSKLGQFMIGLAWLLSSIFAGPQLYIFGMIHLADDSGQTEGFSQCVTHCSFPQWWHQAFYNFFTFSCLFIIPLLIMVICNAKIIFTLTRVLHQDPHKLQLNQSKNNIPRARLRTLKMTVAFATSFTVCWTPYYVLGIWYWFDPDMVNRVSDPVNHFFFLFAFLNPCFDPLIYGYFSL
Put plainly: Radioligand binding, 125I-GnRH-A, bovine pituitary membranes. Conditions: means ± SE of at least three experiments performed in duplicate; read-out: Bovine IC50. An outline of the steps:
as §1

In series [8] the target is T1, rat GnRH receptor. Put plainly: Microphysiometry, extracellular acidification rate, GGH3 cells. It counts as cell-based. The conditions noted are these: agonist alone. As to the method:
These cells have been extensively characterized previously (Kaiser et al., 1997). These cells were grown in low glucose Dulbecco's modified Eagle's medium (DMEM) containing: 100U/mL penicillin/streptomycin, 0.6 g/L G418 and 10% beat-inactivated fetal bovine serum
This cell line was provided by Dr. Stuart Sealfon, Mount Sinai Medical School New York, N.Y. These cells were grown in DMEM supplemented with 0.2 g/L G418 100 U/ml penicillin/streptomycin and 10% FBS. Both GGH3 and hGnRH-R/293 cells were utilized for both for both total inositol phosphate measurement and for microphysiometry assessment of compound efficacy.
The Cytosensor®Microphysiometer (Molecular Devices, Sunnyvale, Calif.) is a real-time, noninvasive, nonradioactive semiconductor-based system for monitoring the cellular responses to various stimuli. It is based on a pH-sensitive silicon sensor, the light-addressable potentiometric sensor which forms part of a microvolume flow chamber in which cultured cells are immobilized (Pitchford et al., 1995; Parce et al., 1989; Owicki, et al. 1994).
GGH3 cells were seeded in low-buffered minimal essential media (MEM, Sigma) containing 25 mM NaCl and 0.1% BSA at a density of 500,000 cells/capsule onto the polycarbonate membrane (3 μm porosity) of cell capsule cups (Molecular Devices, Sunnyvale, Calif.). Capsule cups were transferred to sensor chambers where cells were held in close apposition to a silicon sensor within a sensor chamber, which measures small changes in pH in the microvolume of the sensor chamber. Low-buffered medium was pumped continuously across the cells at a rate of approximately 100 μl/min from one of two fluid reservoirs. A selection valve determined which reservoir from which fluid was perifused onto the cells.
The Cytosensor®Microphysiometer generates a voltage signal, which is a linear function of pH, every second. In order to measure acidification rates, flow to the sensor chamber containing the cells was periodically interrupted, allowing for excreted acidic metabolites to build up in the extracellular fluid of the cells. In these experiments, cells were maintained at 37° C. on a two minute flow cycle with cells being perfused with media for 80 seconds followed by 40 seconds in which the flow of media was stopped. During this 40 second interval, acidification rates were measured for a 30 sec interval. In this fashion, a single acidification rate was calculated every two min. The Cytosensor®Microphysiometer device contains eight such sensor units, allowing for eight simultaneous experiments to be performed. Each unit was individually programmed utilizing a computer linked to the system.
GGH3 cells were initially equilibrated in the low-buffered MEM media for a period of 30-60 min in which basal acidification rates (measured as μV/sec), in the absence of any stimuli, were monitored. When the basal rate of acidification changed by less than ten percent over a period of twenty minutes, experiments were initiated. Time course experiments were performed to determine the optimal time for agonist exposure prior to acidification rate measurement and the duration of exposure needed to obtain peak acidification responses to various agonists. From these time course experiments, it was determined that cells should be exposed to GnRH peptide agonists at least one minute prior to collection of acidification rate data. Peak acidification rates usually occurred in the first two-minute exposure cycle. In order to capture the peak response to GnRH, cells were exposed to the agonist for a total of four minutes. […] All compounds were tested in a final concentration of 1% DMSO in low-buffered MEM media described above.

The mark [9] stands for this setting: female, 10 mg/kg, rat female, p.o. 10 mg/kg, 5 mg/ml solution in 10% DMSO 10% cremophor 80% saline.
The mark [10] stands for this setting: male, 20 mg/kg, rat male, p.o. 20 mg/kg, vehicle per footnote (DMSO/cremophor/saline).

5-HT7, sequence (P34969 whole entry, species assumed): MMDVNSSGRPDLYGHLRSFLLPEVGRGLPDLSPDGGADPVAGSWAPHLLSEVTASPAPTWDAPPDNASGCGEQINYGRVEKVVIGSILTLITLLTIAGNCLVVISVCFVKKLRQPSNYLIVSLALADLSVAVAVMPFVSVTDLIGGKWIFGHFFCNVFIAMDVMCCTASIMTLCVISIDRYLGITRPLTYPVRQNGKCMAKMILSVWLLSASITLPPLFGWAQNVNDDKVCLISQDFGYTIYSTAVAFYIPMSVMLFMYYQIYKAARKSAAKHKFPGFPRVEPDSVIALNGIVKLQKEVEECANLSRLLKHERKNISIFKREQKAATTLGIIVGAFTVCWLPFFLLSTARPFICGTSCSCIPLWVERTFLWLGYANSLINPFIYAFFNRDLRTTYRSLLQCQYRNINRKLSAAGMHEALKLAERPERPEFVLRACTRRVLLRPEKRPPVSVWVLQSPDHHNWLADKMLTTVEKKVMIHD
D2 Dopamine, sequence (P14416 whole entry): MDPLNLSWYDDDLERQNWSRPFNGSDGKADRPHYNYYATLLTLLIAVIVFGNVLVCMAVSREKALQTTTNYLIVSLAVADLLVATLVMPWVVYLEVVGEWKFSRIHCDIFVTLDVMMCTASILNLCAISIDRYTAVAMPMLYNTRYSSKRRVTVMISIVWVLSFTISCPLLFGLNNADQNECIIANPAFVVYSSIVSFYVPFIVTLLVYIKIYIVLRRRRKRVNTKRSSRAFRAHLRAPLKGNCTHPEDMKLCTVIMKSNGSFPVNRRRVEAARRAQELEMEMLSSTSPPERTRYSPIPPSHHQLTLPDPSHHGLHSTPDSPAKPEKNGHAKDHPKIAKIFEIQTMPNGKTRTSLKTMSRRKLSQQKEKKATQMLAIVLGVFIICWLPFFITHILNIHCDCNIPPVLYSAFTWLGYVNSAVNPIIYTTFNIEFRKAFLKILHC

For orientation: Ki means the dissociation constant of the complex between target and ligand, obtained from inhibition or displacement. In general, Cmax refers to the maximum level reached in the sampled fluid or tissue. The term Tmax denotes the time from dosing to the highest level. A word on the half-life: it is the time needed for the level to fall by half in the phase considered. The IC50 is the concentration needed to halve the response being measured. In the case of `COc1cccc(OC)c1NC(=O)c1ccc(Cc2c(C)cc(C)c(Br)c2C)o1` [Compound 140], the “Human pmol/min/mg 1 μM” value in series [1] came to 497 pmol/min/mg. Besides, the results for the Ki on 5-HT7 and on D2 Dopamine were over 4400 nM and 2300 nM, respectively. Also, in [2] (setting [9]), the concentration peaked (Cmax) at 440 nM. For the same molecule, the Tmax in [2] (setting [9]) is 1 h. This molecule gave a half-life in series [2] (female, rat female) of 4.6 h. In series [2] (rat female, 5 mg/ml solution in 10% DMSO 10% cremophor 80% saline), the Fp.o. is listed as 59% (10 mg/kg)^10. Moreover, the IC50 on rat GnRH receptor [3] is 530 nM; at human GnRH receptor it was 110 nM; on mouse GnRH receptor (read-out: mGnRH IC50), 320 nM. Further, in [4], the “Rat male pmol/min/mg 1 μM” value is recorded as 2521 pmol/min/mg.
Take `Cc1cc2c(cc1Cc1ccc(C(=O)NCc3cccc(CNc4nccc(NC[C@@H]5CCCO5)n4)c3)o1)C(C)(C)CCC2(C)C` [Compound 148]: the “Human pmol/min/mg 1 μM” value in series [1] was 248 pmol/min/mg. The “Dog pmol/min/mg 1 μM” value in series [5] is listed as 1960 pmol/min/mg. Moreover, the “Rat female pmol/min/mg 1 μM” value in series [6] came to 133 pmol/min/mg. The same molecule had a half-life in series [2] (male, iv, 10 mg/kg, rat male) of 1.1 h. In series [2] (setting [10]), this molecule yielded a Cmax of 30 nM. In addition, the Tmax in series [2] (setting [10]) is 2 h. The Fp.o. in series [2] (rat male, p.o. 20 mg/kg, vehicle per footnote (DMSO/cremophor/saline)) was 3% (20 mg/kg)^1. Also, the IC50 at rat GnRH receptor [3] is 1.6 nM; at human GnRH receptor it was 12 nM; on mouse GnRH receptor (read-out: mGnRH IC50), 1.3 nM. In [7], the “Monkey pmol/min/mg 1 μM” value was determined as 5019 pmol/min/mg. Also, in series [4], the “Rat male pmol/min/mg 1 μM” value came to 1414 pmol/min/mg.
On to `CC(C)C[C@H](NC(=O)CNC(=O)[C@H](Cc1ccc(O)cc1)NC(=O)[C@H](CO)NC(=O)[C@H](Cc1c[nH]c2ccccc12)NC(=O)[C@H](Cc1c[nH]cn1)NC(=O)[C@@H]1CCC(=O)N1)C(=O)N[C@@H](CCCNC(=N)N)C(=O)N1CCC[C@H]1C(=O)NCC(N)=O` [GnRH, reference compound], for which the IC50 turned out to be 13 ± 2 nM on bovine GnRH receptor and 11 ± 2 nM at mouse GnRH receptor (Mouse IC50, means ± SE of at least three experiments performed in duplicate). Besides, the “extracellular acidification rate of GGH3 cells” value on rat GnRH receptor [8] is recorded as “dose-dependent increase in the extracellular acidification rate”.
